The structures appear in SMILES notation.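 Following 48 hours of exposure in 96-well plates, responses at five concentrations were used to interpolate endpoints linearly. GI50 marks 50% less growth. TGI is the concentration that stops growth completely.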

Some test systems named below: DU-145 prostate; M14 melanoma; HOP-62 NSCLC; MCF7 breast; SK-MEL-28 melanoma; BT-549 breast; EKVX NSCLC; K-562 leukemia; SN12C renal; SR leukemia.
Assay in all cases: NCI-60 cell line screen, 48 h

Regarding `COc1cnccc1Nc1nc(-c2nn(Cc3c(F)cc(OCCO)cc3F)c3ccccc23)ncc1OC`, the GI50 is 3.11 µM in the test on DU-145 prostate; 1.79 µM in the test on M14 melanoma; 2.46 µM in the test on HOP-62 NSCLC; 1.65 µM in the test with MCF7 breast; 2.47 µM in the test with SK-MEL-28 melanoma; 6.51 µM with BT-549 breast. Moreover, the figures for the GI50 with EKVX NSCLC, with K-562 leukemia and in the test on SN12C renal were 13.5 µM, 0.645 µM and 1.53 µM, respectively. Also, the TGI in the test with DU-145 prostate was 11.5 µM; in the test on M14 melanoma it was 10 µM; with HOP-62 NSCLC it was 8.32 µM; in the test with MCF7 breast it was 6.16 µM; in the test on SK-MEL-28 melanoma, 9.66 µM; with BT-549 breast it was 28.5 µM. Moreover, the TGI was 61.6 µM in the test on EKVX NSCLC, over 100 µM in the test with K-562 leukemia and 11.1 µM in the test on SN12C renal.

In the case of `CSc1nc(SC)c2c(C)cn(COCCOC(=O)c3ccccc3)c2n1`, the TGI in the test on SR leukemia, in the test on DU-145 prostate, in the test on M14 melanoma, in the test on HOP-62 NSCLC, with MCF7 breast and with SK-MEL-28 melanoma was over 100 µM throughout. Besides, the TGI in the test on BT-549 breast, in the test with EKVX NSCLC and in the test on SN12C renal was over 100 µM each time.

In the case of `O=C(C(=CN1CCN(C(=O)c2ccco2)C1=S)C(=O)c1ccccc1)c1ccccc1`, the GI50 in the test on SR leukemia is 1.28 µM; in the test on DU-145 prostate it was 12.4 µM; in the test on M14 melanoma, 7 µM; with HOP-62 NSCLC it was 15.9 µM; in the test on SK-MEL-28 melanoma it was 17.8 µM; in the test on BT-549 breast it was 9.96 µM. The GI50 in the test with EKVX NSCLC is 8.06 µM; in the test on K-562 leukemia, 3.24 µM; in the test on SN12C renal it was 6.07 µM. For the same compound, the TGI with SR leukemia was 6.72 µM; in the test on DU-145 prostate, over 50 µM; in the test with M14 melanoma, 13.8 µM; in the test on HOP-62 NSCLC, 44.2 µM; in the test on SK-MEL-28 melanoma, over 50 µM; in the test on BT-549 breast, 26.4 µM. Also, the TGI with EKVX NSCLC was 21.4 µM; in the test with K-562 leukemia, over 50 µM; in the test with SN12C renal, 14.4 µM.

As to `O=C1/C(=C/c2ccc(C(F)(F)F)cc2)COc2ccc(O)c(O)c21`, the GI50 was 0.267 µM in the test with SR leukemia; 1.6 µM in the test with DU-145 prostate; 1.78 µM in the test with M14 melanoma; 1.65 µM in the test with HOP-62 NSCLC; 1.72 µM in the test with SK-MEL-28 melanoma; 1.86 µM with BT-549 breast. For the same compound, the results for the GI50 in the test on EKVX NSCLC, with K-562 leukemia and in the test on SN12C renal were 1.61 µM, 0.289 µM and 1.15 µM, respectively. Also, the TGI in the test on SR leukemia was 2.53 µM; in the test with DU-145 prostate, 3.19 µM; with M14 melanoma, 4.04 µM; in the test with HOP-62 NSCLC, 3.41 µM; in the test with SK-MEL-28 melanoma, 3.15 µM; in the test with BT-549 breast it was 3.58 µM. Moreover, the TGI in the test with EKVX NSCLC was 2.99 µM; in the test on K-562 leukemia, over 100 µM; in the test on SN12C renal, 2.5 µM.

For `CN1CCN(c2ccc(NC3=CC(=O)c4ncncc4C3=O)cc2)CC1`, the GI50 was 0.321 µM in the test with SR leukemia; 0.639 µM with DU-145 prostate; 0.276 µM in the test with M14 melanoma; 0.186 µM with MCF7 breast; 1.46 µM with SK-MEL-28 melanoma; 1.6 µM in the test on BT-549 breast. Moreover, the GI50 is 0.56 µM in the test on EKVX NSCLC and 0.326 µM with SN12C renal. Further, the TGI in the test on SR leukemia is over 100 µM; in the test on DU-145 prostate it was 1.88 µM; in the test with M14 melanoma it was 0.744 µM; in the test with MCF7 breast it was 0.405 µM; in the test with SK-MEL-28 melanoma, 3.08 µM; in the test on BT-549 breast it was 3.04 µM. The TGI in the test with EKVX NSCLC is 2.15 µM; with SN12C renal, 0.969 µM.

For `COC(=O)c1cc2cc(/C=C3/SC(=S)N(N(C(C)=O)C(C)=O)C3=O)oc2n1Cc1ccccc1`, the GI50 in the test on DU-145 prostate was 20.7 µM; in the test on M14 melanoma, 11 µM; with HOP-62 NSCLC, 2.67 µM; with MCF7 breast, 34.1 µM; in the test on SK-MEL-28 melanoma it was 38.4 µM; in the test with BT-549 breast, 24.2 µM. Also, the GI50 in the test on EKVX NSCLC is 31 µM; in the test with K-562 leukemia it was 22.7 µM; in the test on SN12C renal it was 20.7 µM. Moreover, the TGI is 73.4 µM in the test on DU-145 prostate; 40.6 µM with M14 melanoma; 14.1 µM with HOP-62 NSCLC; over 100 µM in the test on MCF7 breast; over 100 µM with SK-MEL-28 melanoma; 54.2 µM in the test on BT-549 breast. The TGI is over 100 µM in the test with EKVX NSCLC, 53.7 µM in the test on K-562 leukemia and 56 µM in the test with SN12C renal.

Turning to `COc1cc(C(=O)n2nc(N)c3c(C)cc(C)nc32)cc(OC)c1OC`, the GI50 in the test on SR leukemia is 0.784 µM; in the test on DU-145 prostate, over 100 µM; in the test with M14 melanoma, over 73.7 µM; in the test with HOP-62 NSCLC, 40.8 µM; in the test with MCF7 breast, 10.2 µM; with SK-MEL-28 melanoma it was over 100 µM. The GI50 in the test with BT-549 breast is over 100 µM; in the test on K-562 leukemia, 0.488 µM; in the test on SN12C renal, over 100 µM. In addition, the TGI in the test with SR leukemia, with DU-145 prostate, in the test on M14 melanoma, in the test on HOP-62 NSCLC, in the test with MCF7 breast and in the test on SK-MEL-28 melanoma was over 100 µM throughout. Further, the TGI in the test on BT-549 breast, in the test on K-562 leukemia and in the test with SN12C renal was over 100 µM each time.

For the compound `CC1=C[C@@H]2c3c(c(O)c(O)c4oc5cc(O)cc(O)c5c(=O)c34)[C@@H](c3cc(O)c(O)c4oc5cc(O)cc(O)c5c(=O)c34)[C@@H]2C(C)(C)C1`, the GI50 is 5.53 µM in the test with DU-145 prostate; 2.37 µM in the test on M14 melanoma; 3 µM with HOP-62 NSCLC; 1.89 µM in the test with MCF7 breast; 5.64 µM in the test on SK-MEL-28 melanoma; 3.68 µM in the test on BT-549 breast. The GI50 with EKVX NSCLC is 5 µM; in the test with K-562 leukemia, 2.34 µM; in the test on SN12C renal it was 3.91 µM. Further, the TGI came to 16.6 µM in the test on DU-145 prostate; 12.8 µM in the test on M14 melanoma; 14.5 µM in the test on HOP-62 NSCLC; 11 µM in the test on MCF7 breast; 18.7 µM with SK-MEL-28 melanoma; 19.8 µM with BT-549 breast. Also, the TGI in the test with EKVX NSCLC is 15.6 µM; in the test on K-562 leukemia it was 80 µM; with SN12C renal, 23 µM.

The values are drawn from PubChem BioAssay (NCI).
